Literature values as cited in patent US6548469B2, “Cleaning compositions” (Merck Patent GmbH, priority 1996, dated 2003).

Settings: use in cosmetics formulations on humans

CCCCN(CCC(=O)OCC)C(C)=O [ethyl 3-(N-butylacetamino)propionate]
skin and mucosa tolerance: outstanding | toxic, allergizing or sensitizing properties: without toxic, allergizing or sensitizing properties
